# Measured values taken from patent US12636299B2, “Terpenoid derivatives, pharmaceutical preparations containing these derivatives and their use in neuroprotection” (UNIVERZITA PALACKEHO V OLOMOUCI, priority 2020, dated 2026).
# Assays:
# [1] = test system: superoxide radical formation; experiment: Oxidative stress (superoxide radical formation, DHE) in 3NPA-induced model on SH-SY5Y; format: cell-based, human; settings: for Superoxide radical formation (oxidative stress) %: 20 mM 3NPA = 100%, 24 hours
# Protocol: Similarly, to previous assay, cells grown on 96-multiwell plates at density 20000 cells per well underwent differentiation and treatment procedure with 3-nitropropionic acid (3NPA) in this model. After 24 hours of co-treatment with 20 mM 3NPA, superoxide radical's formation as a marker of oxidative stress was quantified by dihydroethidium according to Kim et al. (2017, J. Med. Food, 20, 140-151). Briefly, neuron-like SH-SY5Y cells were centrifuged at 500 g for 5 min and 30 s, then media were replaced by 10 μM DHE PBS solution and kept at room temperature for 30 min. After that, DHE was read at 500 nm/580 nm (excitation/emission) by Infinite M200 Pro (Tecan) microplate reader. DHE is cell permeable dye which is selective for superoxide radical detection. Overall oxidative stress achieved by 20 mM 3NPA was consider as 100% and thus the reduction in superoxide radical's formation (OS reducing effect) was determined. As shown in Table 6 and FIG. 2, 20 mM 3NPA induced 2.7-fold increase in superoxide radical's formation.
# [2] = test system: human neuroblastoma cell line SH-SY5Y; experiment: Viability of differentiated SH-SY5Y in salsolinol-induced model of PD (Calcein AM); format: cell-based; settings: for Neuroprotective effect (% of control): difference between 800 μM SAL and co-treatment group means, 24 hours; for effect on SH-SY5Y viability in salsolinol model, in words: 800 μM salsolinol, comparison with NAC
# Protocol: Similarly, as in previous “Safety test”, the SH-SY5Y cells were seeded at density 7000 cells/well. After 48 h differentiation, old 1% DMEM/F12 media was replaced by fresh media containing 800 μM salsolinol (SAL) and tested compounds in 0.1, 1 and 10 μM concentrations. N-acetylcystein were chosen as positive control. After 24 hours, the cell viability was measured by Calcein AM viability assay. The values in Table 2 show % of viability of all tested compounds relative to control. The control (medium with DMSO, <0.1% (v/v)) was postulated as 100% viability (see the first line of the table), while the SAL exposure lead to decrease of viability to 65.4±0.97%.
# caspase-3,7 activity = experiment: Caspase-3,7 activity in salsolinol-induced model of PD on SH-SY5Y (Ac-DEVD-AMC); format: cell-based, human; settings: for Caspase-3,7 activity (% of 800 μM SAL control): percentages of control (800 μM SAL = 100), 24 hour co-treatment; for reduction of caspase-3,7 activity, in words: 800 μM SAL, compounds 3 and 4 at 10 μM compared with NAC; for efficacy relative to positive controls (by used concentration): caspase-3,7 activity, salsolinol model
# Protocol: Similarly, as shown in previous assay, cells grew on 96 multiwell plates at density 20000 cells per well underwent differentiation and treatment procedure for salsolinol model. After 24 hour co-treatment with salsolinol, caspase-3,7 (casp-3,7) activity as marker of apoptosis was quantified by its substrate Ac-DEVD-AMC according to Carrasco et al. (2003, BioTechniques, 34, 1064-1067). In this model, overall casp-3,7 activity induced by 800 μM SAL was consider as 100% and thus the reduction in casp-3,7 was observed after treatment with the protective terpenoid derivatives. As shown in Table 4 and FIG. 2, 800 μM SAL induced 2.9-fold increase.
# glial A-172 cells [3] = experiment: Cytotoxicity, Calcein AM viability assay on glial A-172 cells; format: cell-based, human; settings: NAC at 1000 μM
# Protocol: The assay was performed in 96-well microplate with 7000 SH-SY5Y cells per well. After 48 h, old DMEM/F12 media was removed by fresh media containing tested compounds at 0.1, 1 and 10 μM concentrations for 24 h. Glial cell line A-172 purchased from ATCC and grown in same conditions as SH-SY5Y cell line. […] All tested compounds dissolved in DMSO were added into the medium. The maximum concentration of DMSO in media was kept below 0.1% (v/v). The cell viability was measured by Calcein AM (1 mg/ml ThermoFisher) viability assay. Solution of Calcein AM in PBS (0.75 μM) was pipetted to cells and incubated for 50 min. After that the fluorescence was measured at 488/517 nm (excitation/emission) using microplate reader Infinite M200 (TECAN). Calcein AM assay is based on the dye-intracellular-esterase cleavage of non-fluorescent dye (Calcein AM) by living cells to fluorescent dye (Calcein), while dying cells lose such ability.
# [4] = test system: human neuron-like SH-SY5Y cells; experiment: 3NPA-induced model of Huntington's disease, neuron-like SH-SY5Y cells; format: cell-based; settings: difference to 20 mM 3NPA, 48 h
# Protocol: (§1) Before application of toxin 3-nitropropionic acid (3NPA) for mimicking Huntington's disease, the 3NPA was dissolved in water and neutralized by sodium hydroxide. SH-SY5Y cells were seeded in the same density and differentiated by the procedure shown above. Astrocyte cells A-172 were also seeded as described in previous section. Both cell lines were co-treated by 3NPA (20 mM for SH-SY5Y cells, […]) and tested compounds at 0.1, 1 and 10 μM concentration for 48 h.
# astrocyte A-172 cells = experiment: 3NPA-induced model of Huntington's disease, astrocyte A-172 cells; format: cell-based, human; settings: for Astro-protective effect (% of control): difference to 10 mM 3NPA, 48 h
# Protocol: as §1
# glial A-172 cells [5] = experiment: Cytotoxicity, Calcein AM viability assay on glial A-172 cells; format: cell-based, human; settings: 48 hours
# [6] = test system: SH-SY5Y human neuroblastoma cell line; experiment: Cytotoxicity, Calcein AM viability assay on neuron-like SH-SY5Y cells; format: cell-based; settings: 24 h
# Protocol: The SH-SY5Y human neuroblastoma cell line obtained from ECACC (The European Collection of Authenticated Cell Cultures) was cultivated in Dulbecco's modified Eagle's Medium and Ham's F12 Nutrient Mixture (DMEM:F-12, 1:1), supplemented with 10% fetal bovine serum (FBS) and 1% penicillin and streptomycin at 37° C. in a humidified atmosphere 5% CO2, 95% humidity in passage limit up to ECACC+20. The assay was performed in 96-well microplate with 7000 SH-SY5Y cells per well. After 48 h, old DMEM/F12 media was removed by fresh media containing tested compounds at 0.1, 1 and 10 μM concentrations for 24 h. Glial cell line A-172 purchased from ATCC and grown in same conditions as SH-SY5Y cell line. A-172 cells were seeded in density 2000 cells per well and growing medium was replaced by treatment medium containing tested compounds in 0.1, 1 and 10 μM concentration; or in higher concentrations for R-LA or NAC positive controls for 48 hours. All tested compounds dissolved in DMSO were added into the medium. The maximum concentration of DMSO in media was kept below 0.1% (v/v). The cell viability was measured by Calcein AM (1 mg/ml ThermoFisher) viability assay. Solution of Calcein AM in PBS (0.75 μM) was pipetted to cells and incubated for 50 min. After that the fluorescence was measured at 488/517 nm (excitation/emission) using microplate reader Infinite M200 (TECAN). Calcein AM assay is based on the dye-intracellular-esterase cleavage of non-fluorescent dye (Calcein AM) by living cells to fluorescent dye (Calcein), while dying cells lose such ability. The values in Table 2 show the % of viability compared to control for all tested compounds. The results from DMSO control (medium with DMSO, <0.1% (v/v)) was postulated as 100% viability (see the first line of Table 2).
Compound,Superoxide radical formation (oxidative stress) % ([1]; 0.1 μM),Superoxide radical formation (oxidative stress) % ([1]; 1 μM),Superoxide radical formation (oxidative stress) % ([1]; 10 μM),Neuroprotective effect (% of control) ([2]; 0.1 μM),Neuroprotective effect (% of control) ([2]; 1 μM),Neuroprotective effect (% of control) ([2]; 10 μM),"effect on SH-SY5Y viability in salsolinol model, in words [2]","Caspase-3,7 activity (% of 800 μM SAL control) (caspase-3,7 activity; 1 μM)","Caspase-3,7 activity (% of 800 μM SAL control) (caspase-3,7 activity; 10 μM)","reduction of caspase-3,7 activity, in words (caspase-3,7 activity)","efficacy relative to positive controls (by used concentration) (caspase-3,7 activity)","effect on viability of astrocytes, in words (glial A-172 cells [3])",Neuro-protective effect (% of control) ([4]; 0.1 μM),Neuro-protective effect (% of control) ([4]; 1 μM),Neuro-protective effect (% of control) ([4]; 10 μM),"Astro-protective effect (% of control) (astrocyte A-172 cells; A-172, 0.1 μM)","Astro-protective effect (% of control) (astrocyte A-172 cells; A-172, 1 μM)","Astro-protective effect (% of control) (astrocyte A-172 cells; A-172, 10 μM)","viability, percentage of DMSO control (glial A-172 cells [5]; 0.1 μM)","viability, percentage of DMSO control (glial A-172 cells [5]; 1 μM)",also measured
"C=C(C(=O)OCc1ccncc1)C1CCC2(COC(C)=O)CCC3(C)C(CCC4C5(C)CCC(OC(C)=O)C(C)(C)C5CCC43C)C12 (stereo not drawn) [Compound 3, Pyridin-4-yl-methyl 3β,28-bis(acetyloxy)lup-20(30)-en-29-oate]",88.4%,79.0%,81.9%,N/A (N/A = no protection),33.10 % of control,21.50 % of control,better effect than 1000 μM NAC,73.7%,55.6%,comparable,10 fold,slight decrease in percentage of living cells,N/A (N/A = no protection),39.96 % of control,24.13 % of control,N/A (N/A = no protection),11.98 % of control,N/A (N/A = no protection),95.5%,98.2%,"OS reducing effect, in words ([1]; 10 μM, comparison with 100 μM NAC): even stronger activity toward oxidative stress; protective effect on astrocytes in 3NPA model, in words (astrocyte A-172 cells; A-172 cells, comparison with R-LA): positive effect comparable to R-LA control; viability, percentage of DMSO control (glial A-172 cells [5]; 10 μM): 71.7%; viability, percentage of DMSO control ([6]; 0.1 μM): 115.8%; viability, percentage of DMSO control ([6]; 1 μM): 145.0%; viability, percentage of DMSO control ([6]; 10 μM): 137.4%"
"C=C(C(=O)OCc1cccnc1)C1CCC2(COC(C)=O)CCC3(C)C(CCC4C5(C)CCC(OC(C)=O)C(C)(C)C5CCC43C)C12 (stereo not drawn) [Compound 4, Pyridin-3-yl-methyl (3β)-3,28-bis(acetyloxy)lup-20(30)-en-29-oate]",84.7%,78.5%,65.8%,N/A (N/A = no protection),33.70 % of control,33.99 % of control,better effect than 1000 μM NAC,67.2%,46.0%,better,10 fold,slight decrease in percentage of living cells,N/A (N/A = no protection),32.36 % of control,28.98 % of control,7.38 % of control,3.25 % of control,N/A (N/A = no protection),104.2%,97.9%,"viability, percentage of DMSO control (glial A-172 cells [5]; 10 μM): 83.6%; viability, percentage of DMSO control ([6]; 0.1 μM): 99.9%; viability, percentage of DMSO control ([6]; 1 μM): 146.1%; viability, percentage of DMSO control ([6]; 10 μM): 142.5%"
